Assay results reported in patent US11639506B2, “Recombinant yeast having increased tolerance to ionic liquids and methods of use” (Wisconsin Alumni Research Foundation, priority 2015, dated 2023).
“And” between values parts separate entries of the source, which are not always exact repeats. Equal values may be shown once.

Assays:
[1] = tested on: Y133 ptk2Δ; format: cell-based, S. cerevisiae; settings: relative to Y133, p<0.01
Method: Compounds, initial screening, and IC50 determination: Compounds tested were purchased from Sigma-Aldrich. […] Plates were read on a TECAN M1000 over a 48 hour growth period. […] When presented, IC50 values for growth inhibition were calculated from triplicate 8 point dose curves and SigmaPlot 12.0. When presented, error bars are mean±standard error (S.E.) of at least 3 replicates.

[2] = tested on: PTK2 deletion mutant in a lab strain background; assay: Growth inhibition IC50, PTK2 deletion mutant in lab strain; format: cell-based, S. cerevisiae; settings: deletion mutant of PTK2 in the lab strain
Method: Compounds, initial screening, and IC50 determination: Compounds tested were purchased from Sigma-Aldrich. Cells of S. cerevisiae (MATαpdr1Δ::natMXpdr3Δ::KI.URA3 snq2Δ::KI.LEU2 can1Δ::STE2pr-Sp_his5 lyp1Δhis3Δ1 leu2Δ0 ura3Δ0 met15Δ0), referred to as control strain, were grown in 200 μl cultures at 30° C. in YPD, with a drug or DMSO control. Plates were read on a TECAN M1000 over a 48 hour growth period. The specific growth rate was calculated using GCAT analysis software (available at cat3-pub.glbrc.org on the World Wide Web) (Sato et al., 2013). When presented, IC50 values for growth inhibition were calculated from triplicate 8 point dose curves and SigmaPlot 12.0. When presented, error bars are mean±standard error (S.E.) of at least 3 replicates.

[3] = tested on: xylose fermenting yeast GLBRCY133; assay: Growth inhibition IC50, xylose fermenting yeast Y133; format: cell-based, S. cerevisiae; settings: Y133 and Y133 ptk2Δ
[4] = tested on: S. cerevisiae deletion mutants; assay: Chemical genomic profiling of pooled deletion mutants; format: cell-based
Method: FIGS. 1A-B depict chemical genomic profiling of ionic liquids. A genome-wide set of deletion mutants were challenged with a specific compound and grown as a pool for several generations.
(§1) Chemical genomic analysis: Chemical genomic analysis of poacic acid was performed as described as described previously (Fung et al., 2013; Parsons et al., 2006). The tested yeast deletion collection had 4000 strains using the genetic background described in Andrusiak (2012). The optimal inhibitory concentration of poacic acid for chemical genomic profiling (70-80% growth versus solvent control in YP-galactose media after 24 hours of growth) was determined using an 8 point dose curve. A concentration of 88 μg/ml inhibited growth within this range. 200 μl cultures of the pooled, deletion collection of S. cerevisiae deletion mutants were grown with 88 μg/ml poacic acid or a DMSO control in triplicate for 48 hours at 30° C. Genomic DNA was extracted using the Epicentre MasterPure™ Yeast DNA purification kit. Mutant-specific molecular barcodes were amplified with specially designed multiplex primers (Smith et al., 2009). The barcodes were sequenced using an Illumina MiSeq. Three replicates of each condition (poacic acid vs. DMSO) were sequenced. One DMSO control was lost due to poor sequencing reads. The barcode counts for each yeast deletion mutant in the presence of poacic acid were normalized against the DMSO control conditions to define sensitivity or resistance of individual strains. To determine a p-value for each top sensitive and resistant mutant, we used the EdgeR package (Robinson et al., 2014, 2010). A Bonferroni-corrected hypergeometric distribution test was used to search for significant enrichment of GO terms among the top 10 sensitive and resistant deletion mutants (Boyle et al., 2004). To understand the pathways that were most affected by poacic acid we developed a protein complex/pathway score based on the summation of the z-scores for each complex/pathway (Pathway z-score). Correlation of the chemical genomic profile of poacic acid with the yeast genetic interaction network to was done as described in Costanzo et al. (2010).

[5] = tested on: yeast mitochondria; assay: SYTO 16 staining of active mitochondria (microscopy); format: cell-based; settings: SYTO 16 stain
From the text: We determined that ionic liquids were more toxic to cells grown on glycerol compared to glucose (FIG. 3A). Using microscopy, we explored the effect of ionic liquids on mitochondria. […] Untreated cells had normal mitochondrial morphology, and at higher doses, mitochondria structures in cells disappeared indicating a loss of functional mitochondria. Finally, we used FACS analysis with the stain 3,3-Dioctadecyloxacarbocyanine perchlorate (“DiO”), which has differential fluorescence depending on mitochondrial membrane potential. In the presence of ionic liquids, we observed a fluorescence shift of DiO, indicating reduced mitochondrial membrane potential (FIGS. 3C-D). Valinomycin was used as a positive control. Hydroxyurea and benomyl were included as negative control agents that causes cell death through a mechanism unrelated to the mitochondria.

[6] = tested on: yeast overexpressing PMA1 or PTK2; assay: Tolerance of PMA1 / PTK2 overexpression strains; format: cell-based
[7] = tested on: Y133 ptk2Δ; format: cell-based, S. cerevisiae
From the text: We deleted PTK2 in our xylose fermenting yeast GLBRCY133 (Parreiras et al.,2014).

[8] = tested on: S. cerevisiae deletion mutants; assay: Chemical genomic profiling of pooled deletion mutants; format: cell-based; settings: listed as EMIM-CI
[9] = tested on: S. cerevisiae; assay: Dose curve for chemical genomic profiling concentration; format: cell-based; settings: 88 μg/ml, YP-galactose media, 24 hours
Method: as §1, with “To determine a p-value for each top sensitive and resistant mutant, we used the EdgeR package (Robinson et al., 2014, 2010). A Bonferroni-corrected hypergeometric distribution test was used to search for significant enrichment of GO terms among the top 10 sensitive and resistant deletion mutants (Boyle et al., 2004). To understand the pathways that were most affected by poacic acid we developed a protein complex/pathway score based on the summation of the z-scores for each complex/pathway (Pathway z-score). Correlation of the chemical genomic profile of poacic acid with the yeast genetic interaction network to was done as described in Costanzo et al. (2010).” left out

## CC(=O)[O-].CCn1cc[n+](C)c1 [EMIM-Ac, 1-ethyl-3-methylimidazolium acetate]
[1]
  tolerance conferred by deletion of PTK2 in Y133: significantly greater tolerance

## CCn1cc[n+](C)c1.[Cl-] [EMIM-Cl, 1-ethyl-3-methylimidazolium chloride]
[2]
  resistant to concentration: over 5%
[3]
  effects on growth at pH 6.5 versus pH 5.0: much greater
[1]
  tolerance conferred by deletion of PTK2 in Y133: significantly greater tolerance
[4]; APM3 deletion mutant
  Fold Change: 0.5222
[4]; ARG2 deletion mutant, listed as EMIM-CI
  Fold Change: 0.1706
[4]; ARX1 deletion mutant
  Fold Change: 1.688
[4]; AVT3 deletion mutant
  Fold Change: 1.575
[4]; AVT5 deletion mutant
  Fold Change: 1.933
[4]; BAP2 deletion mutant
  Fold Change: 1.689
[4]; BNI4 deletion mutant
  Fold Change: 1.665
[4]; BUD8 deletion mutant
  Fold Change: 0.6034
[4]; CAT5 deletion mutant
  Fold Change: 0.4405
[4]; CTF4 deletion mutant
  Fold Change: 2.67
[4]; DAN1 deletion mutant
  Fold Change: 0.5786
[4]; DBF2 deletion mutant
  Fold Change: 1.927
[4]; DBP3 deletion mutant
  Fold Change: 1.709
[4]; DEP1 deletion mutant
  Fold Change: 2.106
[4]; DIA2 deletion mutant
  Fold Change: 2.886
[4]; DOA1 deletion mutant
  Fold Change: 1.661
[4]; DPB3 deletion mutant
  Fold Change: 1.946
[4]; ERF2 deletion mutant
  Fold Change: 1.477
[4]; GAL1 deletion mutant
  Fold Change: 0.1962
[4]; GAL1 deletion mutant, listed as EMIM-CI
  Fold Change: 0.1962
[4]; GRX2 deletion mutant
  Fold Change: 0.3394
[4]; HIR2 deletion mutant
  Fold Change: 0.4587
[4]; HMI1 deletion mutant
  Fold Change: 0.1939
[4]; IRA2 deletion mutant
  Fold Change: 0.4076
[4]; IST3 deletion mutant
  Fold Change: 1.899
[4]; LIA1 deletion mutant
  Fold Change: 1.621
[4]; LYS2 deletion mutant
  Fold Change: 0.4622
[4]; LYS5 deletion mutant
  Fold Change: 0.1821
[4]; LYS14 deletion mutant
  Fold Change: 0.3984
[4]; MCT1 deletion mutant
  Fold Change: 0.1576
[4]; MEI4 deletion mutant
  Fold Change: 1.592
[4]; MF(ALPHA)2 deletion mutant
  Fold Change: 0.6154
[4]; NMD2 deletion mutant
  Fold Change: 1.614
[4]; OLA1 deletion mutant
  Fold Change: 1.645
[4]; PEX32 deletion mutant
  Fold Change: 2.103
[4]; PMT1 deletion mutant
  Fold Change: 1.712
[4]; PPM1 deletion mutant
  Fold Change: 0.3444
[4]; PTK2 deletion mutant
  Fold Change: 12
[4]; PUF4 deletion mutant
  Fold Change: 0.1863
[4]; PUF4 deletion mutant, listed as EMIM-CI
  Fold Change: 0.1863
[4]; PUF6 deletion mutant
  Fold Change: 1.748
[4]; QCR2 deletion mutant, listed as EMIM-CI
  Fold Change: 0.195
[4]; RCR1 deletion mutant
  Fold Change: 0.4508
[4]; REI1 deletion mutant
  Fold Change: 2.168
[4]; RHO2 deletion mutant
  Fold Change: 1.785
[4]; RIM1 deletion mutant, listed as EMIM-CI
  Fold Change: 0.1974
[4]; RNP1 deletion mutant
  Fold Change: 1.495
[4]; ROM2 deletion mutant
  Fold Change: 2.198
[4]; RPL11B deletion mutant
  Fold Change: 1.725
[4]; RPL19A deletion mutant
  Fold Change: 1.875
[4]; RPL19B deletion mutant
  Fold Change: 1.56
[4]; RPL24B deletion mutant
  Fold Change: 2.086
[4]; RPS10A deletion mutant
  Fold Change: 2.351
[4]; RPS18B deletion mutant
  Fold Change: 1.743
[4]; RPS28B deletion mutant
  Fold Change: 2.088
[4]; RRI1 deletion mutant
  Fold Change: 0.6151
[4]; SAP155 deletion mutant
  Fold Change: 1.704
[4]; SAP185 deletion mutant
  Fold Change: 0.649
[4]; SAY1 deletion mutant
  Fold Change: 1.592
[4]; SHE9 deletion mutant
  Fold Change: 0.2014
[4]; SIN3 deletion mutant
  Fold Change: 2.02
[4]; SKY1 deletion mutant
  Fold Change: 4.5 and 4.547
[4]; SPS4 deletion mutant
  Fold Change: 0.5658
[4]; SSK2 deletion mutant
  Fold Change: 1.579
[4]; SUR4 deletion mutant
  Fold Change: 2.535
[4]; SVL3 deletion mutant
  Fold Change: 0.3847
[4]; SWI6 deletion mutant
  Fold Change: 1.902
[4]; TOP1 deletion mutant
  Fold Change: 1.759
[4]; TRP2 deletion mutant
  Fold Change: 1.685
[4]; TSR2 deletion mutant
  Fold Change: 1.94
[4]; TYE7 deletion mutant
  Fold Change: 0.4859
[4]; UBC4 deletion mutant
  Fold Change: 1.541
[4]; UBP14 deletion mutant
  Fold Change: 1.534
[4]; UPF3 deletion mutant
  Fold Change: 1.61
[4]; VPS38 deletion mutant
  Fold Change: 1.666
[4]; YBR090C deletion mutant
  Fold Change: 0.5882
[4]; YDL118W deletion mutant
  Fold Change: 1.522
[4]; YDL172C deletion mutant
  Fold Change: 1.636
[4]; YGR237C deletion mutant
  Fold Change: 0.5496
[4]; YHB1 deletion mutant
  Fold Change: 0.5611
[4]; YIH1 deletion mutant
  Fold Change: 1.762
[4]; YIL141W deletion mutant
  Fold Change: 1.524
[4]; YIR044C deletion mutant
  Fold Change: 0.5723
[4]; YLR194C deletion mutant
  Fold Change: 0.5909
[4]; YLR279W deletion mutant
  Fold Change: 0.5779
[4]; YLR434C deletion mutant
  Fold Change: 1.5
[4]; YMR193C-A deletion mutant
  Fold Change: 1.867
[4]; YOL162W deletion mutant
  Fold Change: 0.5537
[4]; YPL205C deletion mutant
  Fold Change: 1.523
[4]; YPR130C deletion mutant
  Fold Change: 0.5263
[4]; YPS7 deletion mutant
  Fold Change: 1.508
[4]; YPT7 deletion mutant
  Fold Change: 0.1584
[4]; YPT7 deletion mutant, listed as EMIM-CI
  Fold Change: 0.1584
[4]; YSP2 deletion mutant
  Fold Change: 1.618
[4]; ZDS1 deletion mutant
  Fold Change: 0.6026
[5]
  effect on staining of active mitochondria: dose-dependent effect
[6]; PMA1 overexpression, p<0.01
  EMIM-Cl tolerance on increased expression of PMA1: significant decrease
[6]; PTK2 overexpression
  EMIM-Cl tolerance on overexpression of PTK2: reduced EMIM-Cl tolerance, but not significantly
[7]; in the presence of 1% EMIM-Cl, versus Y133
  sugar conversion (glucose and xylose) and ethanol production of PTK2 mutant: significantly improved
[8]; HMI1 deletion mutant
  Fold Change: 0.1939
[8]; LYS5 deletion mutant
  Fold Change: 0.1821
[8]; MCT1 deletion mutant
  Fold Change: 0.1576
[8]; SHE9 deletion mutant
  Fold Change: 0.2014

## CCCCn1cc[n+](C)c1.[Cl-] [BMIM-Cl, 1-butyl-3-methylimidazolium chloride]
[1]
  tolerance conferred by deletion of PTK2 in Y133: significantly greater tolerance
[7]; 1% BMIM-Cl, aerobic and anaerobic conditions
  tolerance and fermentative capacity of PTK2 deletion: greater tolerance and has greater fermentative capacity

## poacic acid
[9]
  growth versus solvent control: 70-80%
